Assays:
[1] = system: patients with idiopathic venous thromboembolism; experiment: PREVENT trial: recurrent venous thromboembolism; type: in vivo, human
Excerpt: (§1) All participants were followed for recurrent VTE, major bleeding events, and all-cause mortality.
(§2) All index events were confirmed by objective criteria at the central Clinical Coordinating Center based upon venography, compression ultrasound or MRI reports (for deep vein thrombosis) or by ventilation/perfusion scans, angiograms, or chest computed tomography scans (for pulmonary embolism). Idiopathic events were defined as those not occurring within 90 days of surgery, trauma, or a diagnosis of metastatic cancer. […] Every patient gave written informed consent and the study protocol was approved by each institutional review board.
The run-in phase was also used to exclude individuals with less than 80 percent compliance.
(§3) Randomization was stratified by clinical site, time since index event (≦6 months, >6 months) and by whether the index event was the patient's first ever VTE. All participants were then followed with office visits once every two months that included blinded INR evaluations and dose adjustments. To further ensure blinding, sham dose adjustments were made in the placebo group.
(§4) As PREVENT was specifically designed to evaluate clinically relevant recurrent thromboembolic events, no surveillance for asymptomatic thrombosis was undertaken. Rather, at each visit the occurrence of any incident clinical events since the last visit two months earlier was evaluated. All endpoints were reviewed by a committee of physicians unaware of study drug assignment. The endpoint of recurrent deep vein thrombosis was confirmed if there was a positive venography study, doppler compression ultrasound, or MRI. Events documented by clinical diagnosis alone were not confirmed. […] Major hemorrhage was defined as any bleeding episode that led either to hospitalization or transfusion.
Comparisons between the warfarin and placebo groups in the distributions of continuous variables used Wilcoxon rank sum tests; for categorical variables, comparisons used Chi-square tests. The primary analysis was an intention-to-treat comparison of the difference between time to first confirmed recurrent VTE after randomization in the two treatment arms using a two-sided log-rank test. The method of Kaplan and Meier was used to estimate the probability of recurrence by time within treatment groups. Estimation of the number of patients needed to treat (NNT) to prevent one recurrent event was based on rates at one year. We used the proportional hazards model for estimation of the relative hazard of recurrent VTE associated with low-intensity warfarin treatment and obtained confidence intervals from this model. The hypothesis of a varying effect of treatment over time was tested in a proportional hazards model including an interaction of treatment with time. Tests and estimates of treatment effects on the composite endpoint used the same methods.
The primary pre-specified subgroup analysis evaluated the effect of treatment separately in persons with and without either factor V Leiden or the prothrombin mutation. The hypothesis of a different effect of treatment by genetic status was tested in a proportional hazards model including the interaction of treatment with the presence of either factor V Leiden or G20210A prothrombin mutation. Other descriptive comparisons within subgroups used the same methods.

[2] = system: patients with idiopathic venous thromboembolism; experiment: PREVENT trial: bleeding, mortality, stroke, cancer, myocardial infarction, drug discontinuation; type: in vivo, human
Excerpt: as §1, §2, §3, §4
(§5) As an index of net clinical benefit, we defined on an a priori basis a composite endpoint of recurrent VTE, major hemorrhage, and all-cause mortality. Incident stroke events were also monitored. These were classified as hemorrhagic or thromboembolic on the basis of clinical records or CT/MRI scanning which were available for all episodes. To avoid double-counting, hemorrhagic strokes were considered as major hemorrhages in analyses using the combined endpoint of recurrent thrombosis, major hemorrhage, and all-cause mortality.
The method of Kaplan and Meier was used to estimate the probability of recurrence by time within treatment groups. Estimation of the number of patients needed to treat (NNT) to prevent one recurrent event was based on rates at one year. […] The hypothesis of a varying effect of treatment over time was tested in a proportional hazards model including an interaction of treatment with time. Tests and estimates of treatment effects on the composite endpoint used the same methods.

[3] = system: patients with idiopathic venous thromboembolism; experiment: PREVENT trial: composite endpoint of recurrent VTE, major hemorrhage and all-cause mortality; type: in vivo, human
Excerpt: as §1, §5
Comparisons between the warfarin and placebo groups in the distributions of continuous variables used Wilcoxon rank sum tests; for categorical variables, comparisons used Chi-square tests. The primary analysis was an intention-to-treat comparison of the difference between time to first confirmed recurrent VTE after randomization in the two treatment arms using a two-sided log-rank test. The method of Kaplan and Meier was used to estimate the probability of recurrence by time within treatment groups. Estimation of the number of patients needed to treat (NNT) to prevent one recurrent event was based on rates at one year. […]

[4] = system: International Normalized Ratio; experiment: PREVENT trial: blinded INR evaluation (CoaguChek fingerstick); type: in vivo, human; conditions: during follow-up; interquartile range 1.4 to 2.0
Excerpt: During the run-in, at randomization, and throughout follow-up, all INR assessments at each study site were made using specially designed fingerstick devices with an identical thromboplastin [International Sensitivity Index 2.0] (CoaguChek, Roche Diagnostics, Indianapolis, Ind.). These devices were altered electronically to provide a coded study value which was transmitted to the Data Coordinating Center. All dose adjustments were made in a blinded manner using a simple clinical algorithm (Appendix A).
as §3

[5] = system: factor VII activity and prothrombin fragment F1+2; conditions: in vivo; cited from earlier work
[6] = requires twice daily dosing; cited from earlier work

CC(=O)CC(c1ccccc1)c1c(O)c2ccccc2oc1=O (centres unmarked) [low-intensity warfarin, warfarin]
reduction in risk of recurrent VTE ([1]; analysis by use or non-use of long-term anticoagulation at the time of the recurrent event): 81%
participants with recurrent VTE after cessation of study drug ([1]; in vivo): 7
Recurrent VTE, Rate ([1]; intention-to-treat): 2.6 events per 100 person years
reduction in risk of recurrent VTE ([1]; men): 53%
Recurrent VTE, Rate ([1]; subgroup: Factor V Leiden or Prothrombin Mutation absent): 2.7 events per 100 person years
Recurrent VTE, Rate ([1]; subgroup: Factor V Leiden or Prothrombin Mutation present): 2.2 events per 100 person years
Recurrent VTE, Rate ([1]; subgroup: age 30-44 years): 3.3 events per 100 person years
Recurrent VTE, Rate ([1]; subgroup: age 45-64 years): 1.7 events per 100 person years
Recurrent VTE, Rate ([1]; subgroup: age 65-89 years): 3.9 events per 100 person years
Recurrent VTE, Rate ([1]; subgroup: men): 4.0 events per 100 person years
Recurrent VTE, Rate ([1]; subgroup: women): 1.1 events per 100 person years
risk reduction of recurrent VTE ([1]; those without factor V Leiden or the prothrombin mutation): 58%
Recurrent VTE, Rate ([1]; time after randomization >1 year): 2.5 events per 100 person years
Recurrent VTE, Rate ([1]; time after randomization ≦1 year): 2.7 events per 100 person years
patients needed to be treated to prevent one recurrent event ([1]; treated for one year, based on rates at one year): 14 patients
risk reduction of recurrent VTE ([1]; versus placebo, intention-to-treat): 64%
reduction in risk of recurrent VTE ([1]; women): 80%
Cancer, Rate ([2]; in vivo): 0.7 events per 100 person years
Deaths, Rate ([2]; in vivo): 0.7 events per 100 person years
Major bleeding, Rate ([2]; in vivo): 0.9 events per 100 person years
Myocardial Infarction, Rate ([2]; in vivo): 0.5 events per 100 person years
confirmed strokes ([2]; in vivo): 1
patients in whom study drug was discontinued before completion of follow-up ([2]; in vivo): 62 patients
major bleeds that were gastrointestinal ([2]; of 5 major bleeds): 3
major bleeds that were hematuria in the setting of renal calculus removal ([2]; of 5 major bleeds): 1
major bleeds that were lower-extremity hematoma ([2]; of 5 major bleeds): 1
major hemorrhage requiring transfusion of packed red blood cells ([2]; patient was receiving full-dose warfarin at the time of the bleed): 1
Composite Endpoint, Rate ([3]; first VTE, major bleed, or death): 4.1 events per 100 person years
reduction in composite study endpoint of recurrent VTE, major hemorrhage, or death ([3]; versus placebo): 48%
median INR [4]: 1.7
reducing biochemical markers of coagulation such as factor VII activity and levels of prothrombin fragment F1+2 [5]: effective

CCOC(=O)CN[C@@H](C(=O)N1CC[C@H]1C(=O)NCc1ccc(/C(N)=N\O)cc1)C1CCCCC1 [ximelagatran]
half-life [6]: relatively short

Reference: US20040235942A1 (priority 2003, published 2004)
